Read-outs that look alike come from different tables or passages of the source. Values belong to the molecule of their own block, whether it stands above or below them.
Molecular target: T1, IKKε (Homo sapiens, UniProt Q14164)
T1 construct: His-tag (in-house Sf9 preparation) or GST-tag (purchased Invitrogen preparation); these are alternatives, not both on one protein; host or cells: Sf9 cells
T1 sequence (Q14164 1-716): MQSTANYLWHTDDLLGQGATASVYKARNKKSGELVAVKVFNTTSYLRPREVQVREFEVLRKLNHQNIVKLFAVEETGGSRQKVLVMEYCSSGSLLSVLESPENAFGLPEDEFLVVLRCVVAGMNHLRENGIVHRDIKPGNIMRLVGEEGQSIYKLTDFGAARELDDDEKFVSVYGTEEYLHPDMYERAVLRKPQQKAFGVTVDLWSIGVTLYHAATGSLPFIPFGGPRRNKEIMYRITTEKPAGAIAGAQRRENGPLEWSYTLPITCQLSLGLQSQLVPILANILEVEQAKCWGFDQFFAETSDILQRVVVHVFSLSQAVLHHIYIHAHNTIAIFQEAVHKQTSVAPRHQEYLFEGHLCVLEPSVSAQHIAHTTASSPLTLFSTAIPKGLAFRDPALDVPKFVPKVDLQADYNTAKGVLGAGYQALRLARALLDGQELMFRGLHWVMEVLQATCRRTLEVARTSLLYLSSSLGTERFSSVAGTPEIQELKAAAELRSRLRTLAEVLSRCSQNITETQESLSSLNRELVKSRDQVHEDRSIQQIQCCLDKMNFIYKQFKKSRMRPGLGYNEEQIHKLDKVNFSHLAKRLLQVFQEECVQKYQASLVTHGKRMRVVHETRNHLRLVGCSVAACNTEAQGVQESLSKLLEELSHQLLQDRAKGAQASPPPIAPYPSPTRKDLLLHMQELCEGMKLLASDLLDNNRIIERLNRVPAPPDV
Assay: In-vitro IKKε kinase assay (radiolabelled ATP, filterplate)
Format: biochemical
Method: IKKε enzyme was produced as a His-tag fusion in Sf9 cells or purchased as a GST-tag fusion (Invitrogen, Carlsbad, Calif.). TBK1 enzyme was produced as a His-tag fusion in Sf9 cells. Kinase reactions were carried out in reaction buffer using myelin basic protein (Millipore, Ballerica, Mass.), casein or dephosphorylated casein (Sigma, St. Louis, Mo.) as substrate at an ATP concentration equal to twice the Km,ATP value for each enzyme, corresponding to 32 μM ATP for IKKε and 60 μM ATP for TBK1. Radiolabelled [γ^33]ATP (PerkinElmer, Waltham, Mass.) in the amount of […] (IKKe, “normal”) or 0.7 μCi (IKKε, “sensitized”) or 1.25 μCi (TBK1) was added to each assay. Final enzyme concentrations were 0.1 or 0.015 μg/ml (IKKε) and 0.1 or 0.02 μg/ml (TBK1) for the “normal” and “sensitized” assay, respectively, and “sensitized” assays were conducted using only dephosphorylated casein as substrate. Test compounds (or DMSO solvent as a control) were added prior to initiation of the reactions. Reactions were terminated after 30-45 minutes by adding 3% phosphoric acid. Terminated reactions were transferred to P-81 cellulose phosphate filterplates (Whatman, Inc., Piscataway, N.J.) and washed with 1% phosphoric acid on a vacuum apparatus. After air drying, scintillant (PerkinElmer, Waltham, Mass.) was added and the plates were read on a PerkinElmer TopCount NXT instrument. Counts were normalized to DMSO controls after background subtraction.

[1] = "sensitized" assay, read-out: IC50, inhibition of the kinase activity of IKKε
[2] = in-vitro IKKε kinase inhibition assays, given as 0.005 μM (5 nM), read-out: IKKε kinase inhibitory activity (IC50 value)

SMILES: CN(Cc1ccc(Nc2nccc(-c3ccc(OC4CCOCC4)c(C#N)c3)n2)cn1)S(C)(=O)=O [Example Compound 55, N-{[5-({4-[3-Cyano-4-(tetrahydro-2H-pyran-4-yloxy)phenyl]pyrimidin-2-yl}amino)pyridin-2-yl]methyl}-N-methylmethanesulfonamide]
IC50 [2]: < 5 nM

SMILES: CN(C)c1ccc(-c2ccc(Nc3nccc(-c4ccc(OC5CCOCC5)c(C#N)c4)n3)cn2)cn1 [Example Compound 81, 5-(2-{[6′-(Dimethylamino)-2,3′-bipyridin-5-yl]amino}pyrimidin-4-yl)-2-(tetrahydro-2H-pyran-4-yloxy)benzonitrile]
IC50 [1]: < 5 nM | IC50 [2]: < 5 nM

SMILES: N#Cc1cc(-c2ccnc(Nc3ccc(/C=C/CN4CCOCC4)nc3)n2)ccc1OC1CCOCC1 [Example Compound 190, 5-[2-({6-[(1E)-3-(Morpholin-4-yl)prop-1-en-1-yl]pyridin-3-yl}amino)pyrimidin-4-yl]-2-(tetrahydro-2H-pyran-4-yloxy)benzonitrile]
IC50 [1]: < 5 nM

SMILES: COCCNc1cc(Nc2nccc(-c3ccc(OCC4CC4)c(C#N)c3)n2)ccn1 [Example Compound 245, 2-(Cyclopropylmethoxy)-5-[2-({2-[(2-methoxyethyl)amino]pyridin-4-yl}amino)pyrimidin-4-yl]benzonitrile]
IC50 [1]: < 5 nM

SMILES: CN(Cc1ccc(Nc2nccc(-c3ccc(OC4CCOCC4)c(C#N)c3)n2)cn1)C(=O)C(C)(C)O [Example Compound 56, N-{[5-({4-[3-Cyano-4-(tetrahydro-2H-pyran-4-yloxy)phenyl]pyrimidin-2-yl}amino)pyridin-2-yl]methyl}-2-hydroxy-N,2-dimethylpropanamide]
IC50 [2]: < 5 nM

SMILES: CC(=O)N(C)Cc1ccc(Nc2nccc(-c3ccc(OC4CCOCC4)c(C#N)c3)n2)cn1 [Example Compound 208, N-{[5-({4-[3-Cyano-4-(tetrahydro-2H-pyran-4-yloxy)phenyl]pyrimidin-2-yl}amino)pyridin-2-yl]methyl}-N-methylacetamide]
IC50 [1]: < 5 nM

SMILES: CC(=O)NCc1ccc(Nc2nccc(-c3ccc(OC4CCOCC4)c(C#N)c3)n2)cn1 [Example Compound 68, N-{[5-({4-[3-Cyano-4-(tetrahydro-2H-pyran-4-yloxy)phenyl]pyrimidin-2-yl}amino)pyridin-2-yl]methyl}acetamide]
IC50 [2]: < 5 nM

SMILES: COCCNc1ncc(-c2ccc(Nc3nccc(-c4ccc(OC5CCOCC5)c(C#N)c4)n3)cn2)cn1 [Example Compound 187, 5-{2-[(6-{2-[(2-Methoxyethyl)amino]pyrimidin-5-yl}pyridin-3-yl)amino]pyrimidin-4-yl}-2-(tetrahydro-2H-pyran-4-yloxy)benzonitrile]
IC50 [1]: < 5 nM

SMILES: COCCNc1cc(Nc2nccc(-c3ccc(OC4CCOCC4)c(C#N)c3)n2)ccn1 [Example Compound 38, 5-[2-({2-[(2-Methoxyethyl)amino]pyridin-4-yl}amino)pyrimidin-4-yl]-2-(tetrahydro-2H-pyran-4-yloxy)benzonitrile]
IC50 [2]: < 5 nM

SMILES: N#Cc1cc(-c2ccnc(Nc3ccnc(N4CC(O)C4)c3)n2)ccc1OCC1CC1 [Example Compound 241, 2-(Cyclopropylmethoxy)-5-(2-{[2-(3-hydroxyazetidin-1-yl)pyridin-4-yl]amino}pyrimidin-4-yl)benzonitrile]
IC50 [1]: < 5 nM

SMILES: COC1CN(c2cc(Nc3nccc(-c4ccc(OCC5CC5)c(C#N)c4)n3)ccn2)C1 [Example Compound 248, 2-(Cyclopropylmethoxy)-5-(2-{[2-(3-methoxyazetidin-1-yl)pyridin-4-yl]amino}pyrimidin-4-yl)benzonitrile]
IC50 [1]: < 5 nM

SMILES: N#Cc1cc(-c2ccnc(Nc3ccnc(N4CCC[C@@H]4CO)c3)n2)ccc1OC1CCOCC1 [Example Compound 194, 5-[2-({2-[(2R)-2-(Hydroxymethyl)pyrrolidin-1-yl]pyridin-4-yl}amino)pyrimidin-4-yl]-2-(tetrahydro-2H-pyran-4-yloxy)benzonitrile]
IC50 [1]: < 5 nM

More lines, main results first:

IC50 [2]: < 5 nM
SMILES: COC(=O)c1ccc(Nc2nccc(-c3ccc(OC4CCOCC4)c(C#N)c3)n2)cn1 [Example Compound 33, Methyl 5-({4-[3-cyano-4-(tetrahydro-2H-pyran-4-yloxy)phenyl]pyrimidin-2-yl}amino)pyridine-2-carboxylate]
IC50 [1]: < 5 nM

IC50 [2]: < 5 nM
SMILES: COCCNCc1cncc(Nc2nccc(-c3ccc(OC4CCOCC4)c(C#N)c3)n2)c1 [Example Compound 22, 5-{2-[(5-{[(2-Methoxyethyl)amino]methyl}pyridin-3-yl)amino]pyrimidin-4-yl}-2-(tetrahydro-2H-pyran-4-yloxy)benzonitrile]

IC50 [2]: < 5 nM
SMILES: N#Cc1cc(-c2ccnc(Nc3ccc(C(=O)N4CCC4)nc3)n2)ccc1OC1CCOCC1 [Example Compound 30, 5-(2-{[6-(Azetidin-1-ylcarbonyl)pyridin-3-yl]amino}pyrimidin-4-yl)-2-(tetrahydro-2H-pyran-4-yloxy)benzonitrile]
IC50 [1]: < 5 nM

IC50 [2]: < 5 nM
SMILES: CCN(CC)c1ccc(Nc2nccc(-c3ccc(OC4CCOCC4)c(C#N)c3)n2)cn1 [Example Compound 9, 5-(2-{[6-(Diethylamino)pyridin-3-yl]amino}pyrimidin-4-yl)-2-(tetrahydro-2H-pyran-4-yloxy)benzonitrile]
IC50 [1]: < 5 nM

IC50 [2]: < 5 nM
SMILES: N#Cc1cc(-c2ccnc(Nc3cncc(N4CCOCC4)n3)n2)ccc1OC1CCOCC1 [Example Compound 89, 5-(2-{[6-(Morpholin-4-yl)pyrazin-2-yl]amino}pyrimidin-4-yl)-2-(tetrahydro-2H-pyran-4-yloxy)benzonitrile]
IC50 [1]: < 5 nM

IC50 [2]: < 5 nM
SMILES: COC1CN(C(=O)c2csc(Nc3nccc(-c4ccc(OC5CCOCC5)c(C#N)c4)n3)n2)C1 [Example Compound 104, 5-[2-({4-[(3-Methoxyazetidin-1-yl)carbonyl]-1,3-thiazol-2-yl}amino)pyrimidin-4-yl]-2-(tetrahydro-2H-pyran-4-yloxy)benzonitrile]
IC50 [1]: < 5 nM

IC50 [2]: < 5 nM
SMILES: N#Cc1cc(-c2ccnc(Nc3ccnc(N4CCC[C@H]4CO)c3)n2)ccc1OC1CCOCC1 [Example Compound 40, 5-[2-({2-[(2S)-2-(Hydroxymethyl)pyrrolidin-1-yl]pyridin-4-yl}amino)pyrimidin-4-yl]-2-(tetrahydro-2H-pyran-4-yloxy)benzonitrile]
IC50 [1]: < 5 nM

IC50 [2]: < 5 nM
SMILES: COc1cncc(Nc2nccc(-c3ccc(OC4CCOCC4)c(C#N)c3)n2)c1 [Example Compound 27, 5-{2-[(5-Methoxypyridin-3-yl)amino]pyrimidin-4-yl}-2-(tetrahydro-2H-pyran-4-yloxy)benzonitrile]
IC50 [1]: < 5 nM

IC50 [2]: < 5 nM
SMILES: N#Cc1cc(-c2ccnc(Nc3cncc(CN4CCOCC4)c3)n2)ccc1OC1CCOCC1 [Example Compound 21, 5-(2-{[5-(Morpholin-4-ylmethyl)pyridin-3-yl]amino}pyrimidin-4-yl)-2-(tetrahydro-2H-pyran-4-yloxy)benzonitrile]

IC50 [2]: < 5 nM
SMILES: N#Cc1cc(-c2ccnc(Nc3ccnc(CO)c3)n2)ccc1OC1CCOCC1 [Example Compound 66, 5-(2-{[2-(Hydroxymethyl)pyridin-4-yl]amino}pyrimidin-4-yl)-2-(tetrahydro-2H-pyran-4-yloxy)benzonitrile]

IC50 [2]: < 5 nM
SMILES: N#Cc1cc(-c2ccnc(Nc3ccc(CNC(=O)N4CCOCC4)nc3)n2)ccc1OC1CCOCC1 [Example Compound 67, N-{[5-({4-[3-Cyano-4-(tetrahydro-2H-pyran-4-yloxy)phenyl]pyrimidin-2-yl}amino)pyridin-2-yl]methyl}morpholine-4-carboxamide]
